According to patent publication US20170196954A1, “PRIME-BOOST REGIMENS WITH A TLR4 AGONIST ADJUVANT AND A LENTIVIRAL VECTOR” (priority 2014, published 2017):

Columns and labels:
[1] = system: HSV; conditions: continuous suppressive administration, early intervention; cited from earlier work
[2] = system: patients and healthy volunteers; conditions: over 900 patients and healthy volunteers
Source text: GLA is a fully synthetic TLR4 agonist, which has been examined in over 900 patients and healthy volunteers as an adjuvant with NY-ESO-1 protein and with infectious agent antigens such as in flu vaccines. […] A higher Mug dose cohort is currently being examined in this Phase 1 trial.

SMILES	reduction of HSV transmission [1]	safety profile [2]
CC(C)[C@H](N)C(=O)OCCOCn1cnc2c(=O)[nH]c(N)nc21 [Valacyclovir]	less than 50%	
CCCCCCCCCCCCCC(=O)O[C@H](CCCCCCCCCCC)CC(=O)O[C@@H]1[C@@H](NC(=O)C[C@H](CCCCCCCCCCC)OC(=O)CCCCCCCCCCCCC)[C@H](OC[C@H]2O[C@H](O)[C@H](NC(=O)C[C@H](O)CCCCCCCCCCC)[C@@H](OC(=O)C[C@H](O)CCCCCCCCCCC)[C@@H]2O)O[C@H](CO)[C@H]1OP(=O)(O)O [GLA, glucopyranosyl lipid A]		established safety profile
